Measurements: patent US20240034727A1, “IMIDAZOLE COMPOUNDS AS INHIBITORS OF ENPP1” (STINGRAY THERAPEUTICS, INC., priority 2020, published 2024)

These compounds were tested against Recombinant Human ENPP-1 Protein (Homo sapiens (Human), UniProt P22413) (assay: ENPP1 Inhibition Assay). Conditions: substrate Thymidine 5′-monophosphate p-nitrophenol ester; pH 9.0; 37° C. for 45 minutes; absorbance at 405 nm.
Type: biochemical
Description: Assay Buffer: 1 mM CaCl2), 0.2 mM ZnCl2, 50 mM Tris, pH 9.0. Substrate: 8 mM Thymidine 5′-monophosphate p-nitrophenol ester sodium salt (Sigma Cat #T4510). Enzyme: […] Recombinant Human ENPP-1 Protein (R&D Cat #6136-EN-010) in DMSO in 96-well clear assay plates.
An eight point serial dilution of drugs was prepared in 10× in assay buffer with the final assay concentrations starting at 10 μM, 3 μM, 1 μM, 0.3 μM and 0 μM. A dilution of DMSO was included as a control. The assay plate was set up as follows with each well in duplicate: 81 μL assay buffer+10 μL ENPP1 inhibitor or DMSO+5 μL Substrate+4 μL Enzyme. Both the enzyme and substrate was added to opposite sides of the well to ensure that there was no interaction until all wells had both components. The plate was then centrifuged gently for 10 seconds, followed by an incubation at 37° C. for 45 minutes. The reaction was quantified by measuring absorbance at 405 nm using the Envision.
IC50 values are determined using GraphPad Prism 5 software. The data were entered as an X-Y plot into the software as percent inhibition for each concentration of the drug. The concentration values of the drug were log transformed and the nonlinear regression was carried out using the “sigmoidal dose-response (variable slope)” option within the GraphPad software to model the data and calculate IC50 values. The IC50 values reported are the concentration of drug at which 50% inhibition was reached.

Chain of Recombinant Human ENPP-1 Protein (P22413 whole entry): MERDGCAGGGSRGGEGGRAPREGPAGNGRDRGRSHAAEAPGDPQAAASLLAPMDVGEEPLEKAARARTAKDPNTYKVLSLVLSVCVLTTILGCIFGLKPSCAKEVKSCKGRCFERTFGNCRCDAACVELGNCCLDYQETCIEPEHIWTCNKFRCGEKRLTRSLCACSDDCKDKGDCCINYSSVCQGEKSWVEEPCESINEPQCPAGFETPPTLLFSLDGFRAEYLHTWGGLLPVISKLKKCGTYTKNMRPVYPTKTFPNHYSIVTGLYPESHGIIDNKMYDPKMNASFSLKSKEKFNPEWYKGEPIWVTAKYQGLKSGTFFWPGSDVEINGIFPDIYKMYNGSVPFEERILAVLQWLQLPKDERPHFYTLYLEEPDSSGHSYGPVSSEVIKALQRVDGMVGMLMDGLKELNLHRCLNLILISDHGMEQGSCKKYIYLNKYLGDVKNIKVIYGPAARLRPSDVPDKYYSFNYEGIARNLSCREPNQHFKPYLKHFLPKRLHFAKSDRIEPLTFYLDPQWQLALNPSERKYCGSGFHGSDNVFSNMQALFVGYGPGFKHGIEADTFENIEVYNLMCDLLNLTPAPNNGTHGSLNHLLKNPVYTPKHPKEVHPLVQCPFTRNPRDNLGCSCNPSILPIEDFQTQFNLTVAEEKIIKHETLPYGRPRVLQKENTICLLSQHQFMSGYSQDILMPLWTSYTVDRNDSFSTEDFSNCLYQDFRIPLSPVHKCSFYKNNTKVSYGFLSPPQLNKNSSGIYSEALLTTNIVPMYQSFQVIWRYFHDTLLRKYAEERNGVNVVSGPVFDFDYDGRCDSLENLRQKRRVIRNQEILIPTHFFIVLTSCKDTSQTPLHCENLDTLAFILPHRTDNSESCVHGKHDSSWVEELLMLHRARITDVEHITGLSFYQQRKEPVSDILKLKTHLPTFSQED

| SMILES | IC50 [µM] |
| --- | --- |
| O=C(CSc1nc(C(=O)O)c[nH]1)Nc1c(Cl)cccc1Cl [Compound I-18, 2-((2-((2,6-dichlorophenyl)amino)-2-oxoethyl)thio)-1H-imidazole-4-carboxylic acid] | > 10 |
| Cc1ccc(NC(=O)CSc2nc(C(=O)O)c[nH]2)cc1C [Compound I-31, 2-((2-((3,4-dimethylphenyl)amino)-2-oxoethyl)thio)-1H-imidazole-4-carboxylic acid] | > 10 |
| CNC(=O)c1c[nH]c(SCC(=O)Nc2ccc(OC)c(OC)c2)n1 [Compound I-2, 2-((2-((3,4-dimethoxyphenyl)amino)-2-oxoethyl)thio)-N-methyl-1H-imidazole-4-carboxamide] | 0.2 to 10 |
| COc1ccc(NC(=O)CSc2nc(-c3nnn[nH]3)c[nH]2)cc1OC [Compound I-28, 2-((4-(1H-tetrazol-5-yl)-1H-imidazol-2-yl)thio)-N-(3,4-dimethoxyphenyl)acetamide] | < 0.2 |
| COc1ccc(NC(=O)CSc2nc(C(=O)O)c[nH]2)cc1F [Compound I-10, 2-((2-((3-fluoro-4-methoxyphenyl)amino)-2-oxoethyl)thio)-1H-imidazole-4-carboxylic acid] | < 0.2 |
| COc1ccc(NC(=O)CSc2nc(C(=O)O)c[nH]2)c(OC)c1OC [Compound I-26, 2-((2-oxo-2-((2,3,4-trimethoxyphenyl)amino)ethyl)thio)-1H-imidazole-4-carboxylic acid] | > 10 |
| COc1ccc(CNC(=O)CSc2nc(C(=O)O)c[nH]2)cc1OC [Compound I-32, 2-((2-((3,4-dimethoxybenzyl)amino)-2-oxoethyl)thio)-1H-imidazole-4-carboxylic acid] | 0.2 to 10 |
| COc1ccc(NC(=O)CSc2nc(C(=O)O)c[nH]2)cc1C#N [Compound I-33, 2-((2-((3-cyano-4-methoxyphenyl)amino)-2-oxoethyl)thio)-1H-imidazole-4-carboxylic acid] | < 0.2 |
| COc1ccc(CNC(=O)CSc2nc(C(=O)O)c[nH]2)cc1 [Compound I-37, 2-((2-((4-methoxybenzyl)amino)-2-oxoethyl)thio)-1H-imidazole-4-carboxylic acid] | 0.2 to 10 |
| COc1ccc(NC(=O)CSc2nc(C(=O)O)c[nH]2)cc1Br [Compound I-34, 2-((2-((3-bromo-4-methoxyphenyl)amino)-2-oxoethyl)thio)-1H-imidazole-4-carboxylic acid] | < 0.2 |
| Cc1cccc(NC(=O)CSc2nc(C(=O)O)c[nH]2)c1C [Compound I-19, 2-((2-((2,3-dimethylphenyl)amino)-2-oxoethyl)thio)-1H-imidazole-4-carboxylic acid] | > 10 |
| COc1ccc(NC(=O)CSc2nc(C(N)=O)c[nH]2)cc1OC [Compound I-1, 2-((2-((3,4-dimethoxyphenyl)amino)-2-oxoethyl)thio)-1H-imidazole-4-carboxamid] | < 0.2 |
| O=C(CSc1nc(C(=O)O)c[nH]1)Nc1c(F)cccc1F [Compound I-13, 2-((2-((2,6-difluorophenyl)amino)-2-oxoethyl)thio)-1H-imidazole-4-carboxylic acid] | > 10 |
| COc1ccc(NC(=O)CSc2nc(C(=O)OCC(O)CO)c[nH]2)cc1OC (stereo not drawn) [Compound I-30, 2,3-dihydroxypropyl 2-((2-((3,4-dimethoxyphenyl)amino)-2-oxoethyl)thio)-1H-imidazole-4-carboxylate] | < 0.2 |
| COc1ccc(CNC(=O)CSc2nc(C(=O)O)c[nH]2)c(OC)c1 [Compound I-15, 2-((2-((2,4-dimethoxybenzyl)amino)-2-oxoethyl)thio)-1H-imidazole-4-carboxylic acid] | > 10 |
| COc1ccc(Br)cc1NC(=O)CSc1nc(C(=O)O)c[nH]1 [Compound I-36, 2-((2-((5-bromo-2-methoxyphenyl)amino)-2-oxoethyl)thio)-1H-imidazole-4-carboxylic acid] | 0.2 to 10 |
| COc1ccc(NC(=O)CSc2nc(C(=O)O)c[nH]2)c(OC)c1F [Compound I-9, 2-((2-((3-fluoro-2,4-dimethoxyphenyl)amino)-2-oxoethyl)thio)-1H-imidazole-4-carboxylic acid] | > 10 |

| SMILES | IC50 [µM] |
| --- | --- |
| COc1ccc(NC(=O)CSc2nc(/C(N)=N/O)c[nH]2)cc1OC [Compound I-5, (Z)-N-(3,4-dimethoxyphenyl)-2-((4-(N′-hydroxycarbamimidoyl)-1H-imidazol-2-yl)thio)acetamide] | < 0.2 |
| O=C(CSc1nc(C(=O)O)c[nH]1)Nc1ccc(Cl)cc1 [Compound I-20, 2-((2-((4-chlorophenyl)amino)-2-oxoethyl)thio)-1H-imidazole-4-carboxylic acid] | 0.2 to 10 |
| O=C(CSc1nc(C(=O)O)c[nH]1)NCc1ccc(Cl)cc1 [Compound I-22, 2-((2-((4-chlorobenzyl)amino)-2-oxoethyl)thio)-1H-imidazole-4-carboxylic acid] | > 10 |
| O=C(CSc1nc(C(=O)O)c[nH]1)Nc1ccc(N2CCOCC2)cc1 [Compound I-24, 2-((2-((4-morpholinophenyl)amino)-2-oxoethyl)thio)-1H-imidazole-4-carboxylic acid] | > 10 |
| Cc1ccc(F)c(NC(=O)CSc2nc(C(=O)O)c[nH]2)c1 [Compound I-17, 2-((2-((2-fluoro-5-methylphenyl)amino)-2-oxoethyl)thio)-1H-imidazole-4-carboxylic acid] | > 10 |
| O=C(CSc1nc(C(=O)O)c[nH]1)NCc1cccc(Br)c1 [Compound I-11, 2-((2-((3-bromobenzyl)amino)-2-oxoethyl)thio)-1H-imidazole-4-carboxylic acid] | > 10 |
| COc1ccc(NC(=O)CSc2nc(C#N)c[nH]2)cc1OC [Compound I-4, 2-((4-cyano-1H-imidazol-2-yl)thio)-N-(3,4-dimethoxyphenyl)acetamide] | < 0.2 |
| CCOC(=O)c1c[nH]c(SCC(=O)Nc2ccc(OC)c(OC)c2)n1 [Compound I-6, ethyl 2-((2-((3,4-dimethoxyphenyl)amino)-2-oxoethyl)thio)-1H-imidazole-4-carboxylate] | < 0.2 |
| COc1cc(NC(=O)CSc2nc(C(=O)O)c[nH]2)cc(OC)c1 [Compound I-25, 2-((2-((3,5-dimethoxyphenyl)amino)-2-oxoethyl)thio)-1H-imidazole-4-carboxylic acid] | 0.2 to 10 |
| COc1ccc(Oc2ccc(NC(=O)CSc3nc(C(=O)O)c[nH]3)cc2)cc1 [Compound I-16, 2-((2-((4-(4-methoxyphenoxy)phenyl)amino)-2-oxoethyl)thio)-1H-imidazole-4-carboxylic acid] | 0.2 to 10 |
| COc1ccc(NC(=O)CSc2nc(C(=O)O)c[nH]2)cc1OC [Compound I-3, 2-((2-((3,4-dimethoxyphenyl)amino)-2-oxoethyl)thio)-1H-imidazole-4-carboxylic acid] | < 0.2 |
| COc1ccc(NC(=O)CSc2nc(C(=O)OCCN(C)C)c[nH]2)cc1OC [Compound I-29, 2-(dimethylamino)ethyl 2-((2-((3,4-dimethoxyphenyl)amino)-2-oxoethyl)thio)-1H-imidazole-4-carboxylate] | 0.2 to 10 |
| COc1cc(NC(=O)CSc2nc(C(=O)O)c[nH]2)ccc1Cl [Compound I-14, 2-((2-((4-chloro-3-methoxyphenyl)amino)-2-oxoethyl)thio)-1H-imidazole-4-carboxylic acid] | < 0.2 |
| O=C(CSc1nc(C(=O)O)c[nH]1)Nc1ccc(Br)cc1 [Compound I-23, 2-((2-((4-bromophenyl)amino)-2-oxoethyl)thio)-1H-imidazole-4-carboxylic acid] | 0.2 to 10 |
| O=C(CSc1nc(C(=O)O)c[nH]1)Nc1ccc(Cl)cc1F [Compound I-7, 2-((2-((4-chloro-2-fluorophenyl)amino)-2-oxoethyl)thio)-1H-imidazole-4-carboxylic acid] | 0.2 to 10 |
| COc1cc(NC(=O)CSc2nc(C(=O)O)c[nH]2)c(OC)cc1Cl [Compound I-27, 2-((2-((4-chloro-2,5-dimethoxyphenyl)amino)-2-oxoethyl)thio)-1H-imidazole-4-carboxylic acid] | 0.2 to 10 |
